Test results published in US20240391978A1, “APOLIPOPROTEIN FUSION PROTEINS FOR CELL-SPECIFIC IMMUNE REGULATION” (BIO-TRIP B.V., priority 2021, published 2024).

Key:
Macrophages [1] = experiment: Macrophage surface marker flow cytometry; assay type: cell-based, human; details: data not shown
From the text: Primary monocyte-derived dendritic cell (moDC) generation: For experiments were moDCs were compared to macrophages (untrained control or IL4-trained), moDCs were differentiated as follows. First, negatively selected monocytes were obtained as described above. […] The cells were differentiated until day 6, with one medium refresh on day 3. On day 6, the non-adherent cells were harvested in addition to the adherent cells (as described above). The moDCs and macrophages were then subjected to analysis by flow cytometry as described below.
Macrophage surface marker flow cytometry: Macrophages were harvested as described above and transferred to a v-bottom 96 well plate for staining. The cells were centrifuged at 1500 rpm, 5 minutes, 4° C. The supernatant was removed, and the cells were washed once with 200 μl PBA (PBS pH 7.4, 1% w/v BSA (Sigma)).
Fc-receptors were blocked by incubation in PBS supplemented with 10% human pooled serum for 15 minutes at 4° C. After washing once more, surface markers and viability were stained for in a volume of 50 μl for 30 minutes at 4° C., using the antibodies and viability dye described in table 3.
Following two washes, the cells were resuspended in 150 μl PEA and measured on a Cytoflex flow cytometer (Eeckman Coulter) or ED FACSVerse system (ED Eiosciences). Compensation was performed using VersaComp compensation beads (Eeckman Coulter) for single antibody stains; a mixture of live and heat-killed cells was used for single stains of the viability dye (as per the manufacturer's recommendations). Data analysis was performed in Flowjo (v10.7.1, ED Eiosciences) Our gating strategy was as follows: first, a time gate was used if necessary. Then, single cell events were selected using subsequent FSC-A/SSC-A and FSC-A/FSC-H gates. Dead cells were removed from the analysis by selecting the viability dye-negative population. Geometric mean fluorescence intensities were calculated as a measure of surface marker expression.

primary human monocytes = experiment: In vitro inflammation inhibition, LPS-stimulated monocytes; assay type: cell-based
Protocol: For pharmacological inhibition experiments, the monocytes were pre-incubated for 1 hour with one of the inhibitors described in Table 2 before addition of the training stimulus.
In vitro inflammation inhibition: Monocytes were adhered to a flat-bottom cell culture plate for 1 hour and washed with warm PBS to remove any non-adherent cells and cell debris. […] Following the initial 24-hour stimulation, the supernatants were collected and stored at −20° C. until further analysis with ELISA for IL6 and TNF.
Cytokine and lactate measurements: TNF, IL6, and IL1Ra were measured in cell culture supernatants using duoset ELISA kits (R&D systems), according to the manufacturer's instructions. For lactate measurements, a fluorometric assay was used. 30 μl sample, medium control, or known standard was added to a black 96-well plate. Then, 30 μl reaction mix (PBS pH 7.4, horse radish peroxidase (0.2 U/ml), lactate oxidase (2 U/ml), Amplex red (100 μM; Fisher scientific)) was added and the reaction was incubated for 20 minutes in the dark at RT. Immediately thereafter, fluorescence was measured at 530/25 nm and 590/35 nm. Gen5 software (v3.03, BioTek) was used in conjunction with Microsoft Excel to calculate cytokine and lactate concentrations in the original samples.

[2] = test system: tolerant monocytes from the LPS-challenged volunteers; experiment: Experimental human endotoxemia model, ex vivo tolerance reversal; assay type: cell-based; details: ex vivo exposure 24 hours, re-stimulation on day 3
From the text: In vivo experimental human endotoxemia model and ex vivo analyses: Eight healthy (as confirmed by medical history, physical examination, and routine laboratory testing) male volunteers provided written informed consent to participate in experimental endotoxemia experiments conducted at the research unit of the intensive care department of the Radboud university medical center. All study procedures were approved by the local ethics committee (CMO Arnhem-Nijmegen, registration numbers NL71293.091.19 and 2019-5730), and were conducted in accordance with the latest version of the declaration of Helsinki.
A continuous endotoxin infusion regimen was employed, as is described in detail elsewhere (van Lier, D., Geven, C., Leijte, G. P. & Pickkers, P. Experimental human endotoxemia as a model of systemic inflammation. Biochimie 159, 99-106, doi:10.1016/j.biochi.2018.06.014 (2019)). […] A 3-lead ECG was recorded continuously throughout the experiment. […] Participants were monitored for 8 hours after the endotoxin loading dose after which they were discharged from the research unit. […]
Cytokine and lactate measurements: TNF, IL6, and IL1Ra were measured in cell culture supernatants using duoset ELISA kits (R&D systems), according to the manufacturer's instructions. […] Immediately thereafter, fluorescence was measured at 530/25 nm and 590/35 nm. […]

Macrophages [3] = experiment: Phagocytosis assay; assay type: cell-based, human; details: IL4-trained cells vs untrained controls; data not shown
Protocol: Phagocytosis assay: Macrophages were harvested as described above and incubated at 37° C. for 1 hour with FITC-labeled Candida albicans (kindly provided by Dr. Martin Jaeger, Radboudumc) at an MOI of 1:5. The cells were washed 2 times with ice-cold PBA and kept on ice to halt the phagocytosis. The cells were stained for CD45 (table 3) during 30 minutes in the dark at 4° C. Following two washes, trypan blue was added to a final concentration of 0.01% to quench extracellular FITC-Candida. The cells were then acquired on a Cytoflex flow cytometer.
During data analysis, CD45+ events were first selected to remove Candida-only events. Single cells were then gated on as described above and the percentage of Candida-FITC positive macrophages in each sample was calculated.

[4] = Percoll-enriched monocytes, LPS 24 hours, IL4 25 ng/mL

Q: For IL4: recombinant human interleukin 4, which CD1c expression (Macrophages [1]; IL4-trained cells vs untrained cells and moDCs) is on record?
A: The CD1c expression was “slightly more CD1c than untrained cells, but far less than moDCs”.

Q: What about the CD14 expression (Macrophages [1]; IL4 training, day 6) of the same substance?
A: Its CD14 expression is “strong downregulation”.

Q: What about the CD80 expression (Macrophages [1]; IL4 training, day 6) of the same substance?
A: The CD80 expression was “marginally increased”.

Q: What about the CD200R expression (Macrophages [1]; IL4 training, day 6) of the same substance?
A: The CD200R expression was “significantly enhanced”.

Q: What about the CD206 expression (Macrophages [1]; IL4 training, day 6) of the same substance?
A: The CD206 expression was “significantly enhanced”.

Q: What about the “secretion of IL6” value (primary human monocytes; [4]) of the same substance?
A: Its value is “potently inhibited”.

Q: What about the “secretion of IL-1Ra” value (primary human monocytes; [4]) of the same substance?
A: The value was “secreted significantly more IL-1Ra compared to controls”.

Q: And the “secretion of TNF” value (primary human monocytes; [4])?
A: Its value is “potently inhibited”.

Q: And the baseline lactate production (primary human monocytes; otherwise unstimulated monocytes vs medium control, data not shown)?
A: Its baseline lactate production is “slightly, but significantly, lower baseline lactate production”.

Q: What about the “production of IL6 upon re-stimulation with LPS” value [2] of the same substance?
A: Its value is “but not IL6”.

Q: And the “production of TNF upon re-stimulation with LPS” value [2]?
A: The value was “significantly improved”.

Q: What about the “phagocytosis of heat-killed Candida albicans” value (Macrophages [3]) of the same substance?
A: The value was “slightly less effective at phagocytosing heat-killed Candida albicans than untrained controls”.
